{
  "source": "patent US20040054001A1",
  "about": "“Fumaric acid derivatives as nf-kappab inhibitors” (priority 2001, published 2004)",
  "origin": "cited, not measured here",
  "test_system": "Ehrlich ascites tumour",
  "conditions": "mice; cited from earlier work",
  "data": [
    {"smiles": "O=C(O)/C=C/C(=O)O", "note": "[fumaric acid]", "values": [
      {"measurement": "growth of the Ehrlich ascites tumour", "result": "inhibits"}
    ]}
  ]
}
